The source made the active and inactive calls. No cut-off for these calls is given here.
Assays:
[1] = Binding affinity to AT-rich sequence of double strand DNA by fluorescence spectra
[2] = Binding affinity to ODN1/2 double strand DNA by fluorescence spectra

Activity [1]: Active
Activity [2]: Active
Compound: CC(=O)Nc1cc(C(=O)Nc2cc(C(=O)NCCC(=O)Nc3cc(C(=O)Nc4cc(C(=O)NCCC(=O)NCCCN(C)C)n(C)c4)n(C)c3)n(CC#Cc3ccc4c5cccc6cccc(c7cccc3c74)c65)c2)n(C)c1
